Measurements: the PolyMetriX glass transition set
± gives the standard deviation of the reports.

**Q.** With `*Oc1ccc(NC(=O)c2ccc(C(=O)Nc3ccc(Oc4ccc(C5(c6ccc(*)cc6)C6CC7CC(C6)CC5C7)cc4)cc3)c3ccccc23)cc1` (repeat unit) as the compound, how does the glass transition temperature read?
**A.** 269.00 °C

**Q.** For `*c1ccc(N2C(=O)c3ccc(-c4ccc5c(c4)C(=O)N(*)C5=O)cc3C2=O)cc1` (repeat unit), which glass transition temperature is on record?
**A.** 341.00 °C

**Q.** For `*CC(*)(F)C(=O)OCC(Cl)(Cl)Cl` (repeat unit), which glass transition temperature is on record?
**A.** 127.00 °C

**Q.** With `*C(=O)Nc1ccc(S(=O)(=O)c2ccc(NC(=O)c3ccc4c(c3)C(=O)N(c3ccc(NC(=O)Nc5ccc(N6C(=O)c7ccc(*)cc7C6=O)cc5)cc3)C4=O)cc2)cc1` (repeat unit) as the compound, how does the glass transition temperature read?
**A.** 205.00 °C

**Q.** Which glass transition temperature does the source give for `*CC(CO*)(CSCC)CSCC` (repeat unit) here?
**A.** -32.00 °C

**Q.** For `*c1ccc(-c2ccc(-c3c(-c4ccccc4)nc4ccc(-c5ccc6nc(-c7ccccc7)c(*)c(-c7ccccc7)c6c5)cc4c3-c3ccccc3)cc2)cc1` (repeat unit), which glass transition temperature is on record?
**A.** 405.00 °C

**Q.** For `*CC(*)(C)C(=O)OCCCCCCCCOc1ccc(C(=O)Oc2ccc(C(=O)/C=C/c3c(C)c4ccccc4n3CCCC)cc2)cc1` (repeat unit), which glass transition temperature is on record?
**A.** 69.00 °C

**Q.** With `*CC(*)(C)C(=O)OCCCCCCOc1ccc(OC(=O)c2ccc(OC)cc2)cc1` (repeat unit) as the compound, how does the glass transition temperature read?
**A.** 38.00 °C

**Q.** Which glass transition temperature does the source give for `*Oc1c(F)c(F)c(COC(c2cccc(C(OCc3c(F)c(F)c(Oc4ccc(Cc5ccc(*)cc5)cc4)c(F)c3F)(C(F)(F)F)C(F)(F)F)c2)(C(F)(F)F)C(F)(F)F)c(F)c1F` (repeat unit) here?
**A.** 94.00 °C

**Q.** With `*c1cccc(N2C(=O)c3cccc(Oc4ccc(Oc5ccc(Oc6cccc7c6C(=O)N(*)C7=O)cc5)cc4)c3C2=O)c1` (repeat unit) as the compound, how does the glass transition temperature read?
**A.** 238.00 °C

**Q.** With `*/C=C(\C#N)C(=O)NC1CCCCC1NC(=O)/C(C#N)=C/c1ccc(/C=C/c2ccc(N(CC)Cc3cccc(CN(CC)c4ccc(/C=C/c5ccc(*)s5)cc4)c3)cc2)s1` (repeat unit) as the compound, how does the glass transition temperature read?
**A.** 157.00 °C

**Q.** For `*NNC(=O)/C=C/C(=O)Nc1cccc(/C=C2\CC/C(=C\c3cccc(NC(=O)/C=C/C(*)=O)c3)C2=O)c1` (repeat unit), which glass transition temperature is on record?
**A.** 104.60 °C

**Q.** With `*Oc1ccc(C2(c3ccc(OC(=O)C45CC6CC(CC(C(*)=O)(C6)C4)C5)cc3)c3ccccc3-c3ccccc32)cc1` (repeat unit) as the compound, how does the glass transition temperature read?
**A.** 335.00 °C

**Q.** Which glass transition temperature does the source give for `*Oc1ccc(NC(=C(C#N)C#N)c2ccc(-c3ccc(C(Nc4ccc(*)cc4)=C(C#N)C#N)cc3)cc2)cc1` (repeat unit) here?
**A.** 220.00 °C

**Q.** With `*CCN(*)C(=O)c1ccc(F)cc1` (repeat unit) as the compound, how does the glass transition temperature read?
**A.** 104.00 °C

**Q.** Which glass transition temperature does the source give for `*Oc1c(C)cc(-c2cc(C)c(Oc3ccc(C(=O)c4ccc(*)cc4)cc3)c(CBr)c2)cc1CBr` (repeat unit) here?
**A.** 158.17 °C

**Q.** Which glass transition temperature does the source give for `*Oc1ccc(Oc2ccc(C(=O)c3ccc(Oc4ccc(Oc5ccc(C(=O)c6ccc(*)c(C(C)C)c6)cc5)cc4)cc3)cc2C(C)C)cc1` (repeat unit) here?
**A.** 145.00 °C

**Q.** With `*CC(*)c1ccc(Cl)cc1Cl` (repeat unit) [Poly(2,4-dichloro styrene) ] as the compound, how does the glass transition temperature read?
**A.** 133 ± 2.6 °C

**Q.** For `*c1ccc(Oc2ccc(C(=O)c3ccc(C(=O)c4ccc(Oc5ccc(-c6nc(-c7ccccc7)[nH]c6*)cc5)cc4)cc3)cc2)cc1` (repeat unit), which glass transition temperature is on record?
**A.** 248.00 °C

**Q.** For `*Cc1ccc(C(C)c2ccc(Cn3c(=O)c4cc5c(=O)n(*)c(=O)c5cc4c3=O)o2)o1` (repeat unit), which glass transition temperature is on record?
**A.** 116.00 °C

**Q.** For `*CCCCCCCCCc1nc2ccc(-c3ccc4nc(*)oc4c3)cc2o1` (repeat unit), which glass transition temperature is on record?
**A.** 64.00 °C

**Q.** Which glass transition temperature does the source give for `*CC(O)COc1c(C)cc(C(C)(C)c2cc(C)c(OCC(O)COc3c(C)cc(S(=O)(=O)c4cc(C)c(O*)c(C)c4)cc3C)c(C)c2)cc1C` (repeat unit) here?
**A.** 145.00 °C

**Q.** For `*c1ccc(Cc2ccc(N3C(=O)c4ccc(-c5ccc6c(c5)C(=O)N(*)C6=O)cc4C3=O)c(C(C)(C)C)c2)cc1C(C)(C)C` (repeat unit), which glass transition temperature is on record?
**A.** 324.00 °C

**Q.** For `*CC(CO*)C(C)(C)C` (repeat unit), which glass transition temperature is on record?
**A.** -4.00 °C

**Q.** Which glass transition temperature does the source give for `*Oc1ccc(CC(NC(=O)CCc2ccc(OC(=O)CCC(*)=O)cc2)C(=O)OCCCCCC)cc1` (repeat unit) here?
**A.** 53.00 °C

**Q.** For `*c1ccc(C(=O)NC(CC)COC(=O)c2ccc(N3C(=O)CC(SCCCCCSC4CC(=O)N(*)C4=O)C3=O)cc2)cc1` (repeat unit), which glass transition temperature is on record?
**A.** 91.00 °C

**Q.** With `*CC(*)C(=O)OC1CCCCC1` (repeat unit) [Poly(cyclohexyl acrylate)] as the compound, how does the glass transition temperature read?
**A.** 20.42 ± 6.5 °C

**Q.** For `*CCCCCCOc1c(OC)cc(/C=C2\CCC/C(=C\c3cc(OC)c(O*)c(OC)c3)C2=O)cc1OC` (repeat unit), which glass transition temperature is on record?
**A.** 71.00 °C

**Q.** For `*c1ccc(S(*)(=O)=O)cc1` (repeat unit), which glass transition temperature is on record?
**A.** 219.50 °C

**Q.** Which glass transition temperature does the source give for `*CC(*)(C)C(=O)OCCOCCOCCOCCOCCOCCOCCOCCOC` (repeat unit) here?
**A.** -58.00 °C

**Q.** Which glass transition temperature does the source give for `*c1ccc(Oc2ccc(N3C(=O)c4cccc(Oc5ccc(S(=O)(=O)c6ccc(Oc7cccc8c7C(=O)N(*)C8=O)cc6)cc5)c4C3=O)cc2)cc1` (repeat unit) here?
**A.** 267.00 °C

**Q.** Which glass transition temperature does the source give for `*CCOCCOCCOCCOC(=O)/C=C/C(=O)NCCCCCCNC(=O)/C=C/C(=O)O*` (repeat unit) here?
**A.** 52.00 °C

**Q.** For `*C1=C(c2ccc(-c3ccc4c(c3)C(CCCCCC)(CCCCCC)c3cc(-c5ccc(*)cc5)ccc3-4)cc2)C(=O)N(CCCCCCCC)C1=O` (repeat unit), which glass transition temperature is on record?
**A.** 122.00 °C

**Q.** For `*CC(*)(C)C(=O)OCC1CC(NC(=O)OC(C)(C)C)CN1C(=O)OC(C)(C)C` (repeat unit), which glass transition temperature is on record?
**A.** 127.00 °C

**Q.** With `*CC(OCCCC)C1C(=O)OC(=O)C1*` (repeat unit) as the compound, how does the glass transition temperature read?
**A.** 118.00 °C

**Q.** For `*c1ccc2c(c1)C(=O)N(c1ccc(Oc3ccc(N4C(=O)c5ccc(C(*)O[Si](C)(C)C)cc5C4=O)cc3)cc1)C2=O` (repeat unit), which glass transition temperature is on record?
**A.** 210.00 °C

**Q.** For `*Oc1ccc(OC(=O)c2ccc(C(*)=O)cc2Oc2ccc(-c3ccccc3)cc2)cc1` (repeat unit), which glass transition temperature is on record?
**A.** 117.00 °C

**Q.** With `*c1cc(C(=O)NCCCCCC)cc(N2C(=O)c3ccc(-c4ccc5c(c4)C(=O)N(*)C5=O)cc3C2=O)c1` (repeat unit) as the compound, how does the glass transition temperature read?
**A.** 256.90 °C

**Q.** With `*c1ccc2c(c1)C(=O)N(c1ccc(Oc3ccc(N4C(=O)c5ccc(C(*)(C(F)(F)F)C(F)(F)F)cc5C4=O)cc3)c(OCCN(CC)c3ccc(/N=N/c4ccc([N+](=O)[O-])cc4)cc3)c1)C2=O` (repeat unit) as the compound, how does the glass transition temperature read?
**A.** 202.00 °C

**Q.** With `*Oc1ccc(NC(=O)c2cc(C(=O)Nc3ccc(Oc4ccc(C5(c6ccc(*)cc6)CC6CCC5C6)cc4)cc3)cc(C(C)(C)C)c2)cc1` (repeat unit) as the compound, how does the glass transition temperature read?
**A.** 272.00 °C

**Q.** With `*Oc1ccccc1-c1ccccc1Oc1ccc2c(=O)n3c4cc(-c5ccc6c(c5)nc5c7ccc(*)c8cccc(c(=O)n65)c87)ccc4nc3c3cccc1c23` (repeat unit) as the compound, how does the glass transition temperature read?
**A.** 376.00 °C

**Q.** For `*CC(*)(C)C(=O)OC1CCC1` (repeat unit), which glass transition temperature is on record?
**A.** 119.00 °C

**Q.** For `*CCCCCCCCN1C(=O)c2ccc(Oc3ccc4c(c3)C(=O)N(*)C4=O)cc2C1=O` (repeat unit), which glass transition temperature is on record?
**A.** 145.00 °C

**Q.** Which glass transition temperature does the source give for `*[O][Sn]([CH2]CCC)([CH2]CCC)[O]C(=O)/C=C/C(*)=O` (repeat unit) here?
**A.** 186.00 °C

**Q.** Which glass transition temperature does the source give for `*CCCC(=O)Nc1ccc(Cc2ccc(NC(=O)CCCN3C(=O)c4ccc(C(=O)c5ccc6c(c5)C(=O)N(*)C6=O)cc4C3=O)cc2)cc1` (repeat unit) here?
**A.** 195.00 °C

**Q.** With `*Oc1ccc(S(=O)(=O)c2ccc(Oc3ccc(C(c4ccc(*)c([Si](C)(C)C)c4)(C(F)(F)F)C(F)(F)F)cc3[Si](C)(C)C)cc2)cc1` (repeat unit) as the compound, how does the glass transition temperature read?
**A.** 168.60 °C

**Q.** With `*Oc1ccc(S(=O)(=O)c2ccc(Oc3ccc(C(c4ccccc4)(c4ccccc4)c4ccc(*)cc4)cc3)cc2)cc1` (repeat unit) as the compound, how does the glass transition temperature read?
**A.** 230.00 °C

**Q.** For `*Oc1ccc(C(=O)OCCCCCCOC(=O)c2ccc(*)cc2)cc1` (repeat unit), which glass transition temperature is on record?
**A.** 15.00 °C

**Q.** With `*c1nnc(-c2cc(CCCCCCCC)c(-c3ccc(-c4sc(-c5nnc(-c6cc(OCCCCCCCC)c(*)cc6OCCCCCCCC)o5)cc4CCCCCCCC)s3)s2)o1` (repeat unit) as the compound, how does the glass transition temperature read?
**A.** 34.10 °C

**Q.** For `*Oc1ccc(NC(=O)c2cc(NC(=O)CCCCCN3C(=O)c4ccccc4C3=O)cc(C(=O)Nc3ccc(*)cc3)c2)cc1` (repeat unit), which glass transition temperature is on record?
**A.** 200.00 °C

**Q.** For `*CCN(CCOC(=O)Nc1cccc(NC(=O)O*)c1C)c1ccc(/N=N/c2ccc([N+](=O)[O-])cc2)cc1` (repeat unit), which glass transition temperature is on record?
**A.** 147.00 °C

**Q.** For `*CC(*)(CC(=O)OC)C(=O)OC` (repeat unit), which glass transition temperature is on record?
**A.** 95.00 °C

**Q.** With `*Oc1cccc(Oc2ccc3c(=O)n4c5cc(Oc6ccc7c(c6)nc6c8ccc(*)c9cccc(c(=O)n76)c98)ccc5nc4c4cccc2c34)c1` (repeat unit) as the compound, how does the glass transition temperature read?
**A.** 369.50 °C

**Q.** Which glass transition temperature does the source give for `*C/C=C/CS(*)(=O)=O` (repeat unit) here?
**A.** 86.00 °C

**Q.** Which glass transition temperature does the source give for `*CC(*)c1ccc(C)c(C)c1` (repeat unit) [Poly(3,4-dimethyl styrene) ] here?
**A.** 111 ± 2.4 °C

**Q.** For `*O[Si](*)(CCC)CCC` (repeat unit), which glass transition temperature is on record?
**A.** -77.50 °C

**Q.** For `*CC(*)(C)C(=O)OCC(C)O` (repeat unit) [Poly(2-hydroxypropyl methacrylate)], which glass transition temperature is on record?
**A.** 75.4 ± 1.9 °C

**Q.** With `*Oc1ccc(S(=O)(=O)c2ccc(Oc3ccc(C(=O)c4ccc(-c5ccc(C(=O)c6ccc(*)cc6)cc5)cc4)cc3)cc2)cc1` (repeat unit) as the compound, how does the glass transition temperature read?
**A.** 207.00 °C

**Q.** Which glass transition temperature does the source give for `*CC(O)COc1ccc(S(=O)(=O)c2ccc(OCC(O)COc3ccc(S(=O)(=O)c4ccc(O*)c(C)c4)cc3C)cc2)cc1` (repeat unit) here?
**A.** 142.50 °C

**Q.** Which glass transition temperature does the source give for `*CC(*)(C)C(=O)OCCCCC1CCCCC1` (repeat unit) here?
**A.** 43.00 °C

**Q.** For `*C(=O)Nc1ccc(NC(=O)c2ccc3c(c2)C(=O)N(c2ccc(Oc4ccc(N5C(=O)c6ccc(*)cc6C5=O)cc4)cc2)C3=O)c(OCCCCCCS(=O)(=O)c2ccc(/C=C/c3ccc(N(C)C)cc3)cc2)c1` (repeat unit), which glass transition temperature is on record?
**A.** 192.00 °C

**Q.** Which glass transition temperature does the source give for `*[O][Zn][O]C(=O)c1ccccc1C(=O)OCCCCCOC(=O)Nc1cc(NC(=O)OCCCCCOC(=O)c2ccccc2C(*)=O)ccc1C` (repeat unit) here?
**A.** 4.20 °C

**Q.** With `*CCCCCCCCc1nc2ccc(-c3ccc4nc(*)sc4c3)cc2s1` (repeat unit) as the compound, how does the glass transition temperature read?
**A.** 238.00 °C
